Patent US20100216736A2, “2'-CYANOPYRIMIDINE NUCLEOSIDE COMPOUND” (Taiho Pharmaceutical Co., Ltd., priority 2006, published 2010)
≈ marks a conversion by molar mass, not a printed value.

What was measured:
[1] = Pharmacokinetic testing in SD (IGS) rats, oral administration, CNDAC serum concentration; assay type: in vivo; settings: 10 mg/kg of body weight, rat, dose equivalent to 10 mg of CNDAC/kg of body weight, 0 to 8 hours after administration
Experimental: Pharmacokinetic Testing in SD (IGS) Rats
Test compounds were orally administered to SD (IGS) rats (product of Charles River Laboratories Japan, Inc.; 8 weeks old), and, based on the CNDAC serum concentration in the rats, orally administered absorbability and in vivo activation into CNDAC were evaluated.
In the morning of the test day, predetermined amounts of test compounds were each dissolved or suspended in a 0.5% hydroxypropylmethylcellulose solution prepared with 100 mM citrate buffer (pH 4.5), and orally administered. CNDAC was administered at a dose of 10 mg/kg of body weight, and other test compounds were administered at a dose equivalent to 10 mg of CNDAC/kg of body weight. Blood was collected from the jugular vein 0.5, 1, 2, 4, 6, and 8 hours after administration of the test compounds (two or three rats per point) to obtain serum. The serum concentrations of the compounds and CNDAC were measured using LC/MS, and the area under the curve (AUC) of the CNDAC serum concentration from 0 to 8 hours after administration were calculated.

[2] = system: Human colon cancer strain KM20C; assay: Antitumor test using tumor-subcutaneously-implanted nude mouse system upon oral administration (equimolar dose); assay type: in vivo, BALB/cA Jcl-nu mouse; settings: once per day for 14 days, dose equimolar to 18 mg of CNDAC/kg of body weight per day, evaluated on the 29th day after grouping, vs untreated group
Experimental: Antitumor Test using Tumor-Subcutaneously-Implanted Nude Mouse System Upon Oral Administration
(§1) Human colon cancer strain KM20C subcutaneously subcultured in a BALB/cA Jcl-nu mouse (product of Clea Japan Inc.) was prepared into fragments of 2 mm×2 mm, and subcutaneously implanted into the backs of 6-week-old BALB/cA Jcl-nu mice. When the average tumor volume exceeded 100 mm^3, the length of each tumor was measured along the major axis and minor axis, and the tumor volume was calculated using the following equation. The mice were then divided into several groups to reduce variations in tumor volume among the groups (5 or 6 mice per group). Vt=½(Vl)×(Vs)^2, (Equation 1)
wherein Vt represents a tumor volume, Vl represents the length along the tumor major axis, and Vs represents the length along the tumor minor axis.
Test compounds were each dissolved or suspended in a 0.5% hydroxypropylmethylcellulose solution prepared with 100 mM citrate buffer (pH 5.0), and, from the day after the day of grouping, orally administered to the mice once per day for 14 days. The dose was set to be equimolar to 18 mg of CNDAC/kg of body weight per day.
On the 29th day after the day of grouping, with respect to the mice in each group, the longest diameter and shortest diameter of each of the subcutaneously implanted tumors were measured. The relative tumor volume (RTV) and the tumor growth inhibition rate (1R) were calculated using the following equation to evaluate antitumor effects. RTV=Vt1/Vt2, (Equation 2)
wherein RTV represents a relative tumor volume, Vt1 represents the tumor volume on the day of evaluation, and Vt2 represents the tumor volume on the day of grouping. IR(%)=[1−(RTVtest)/(RTVcont)]×100, (Equation 3)
wherein IR represents a tumor growth inhibition rate, RTVtest represents the average RTV value in a drug administration group, and RTVcont represents the average RTV value in an untreated group.

[3] = Measurement of water solubility; settings: for solubility at 75 min: water, 37 °C, thermodynamic from solid
Experimental: Measurement of Water Solubility
Test compounds (2 mg or more) were each suspended in water (1 ml), then sonicated for 10 seconds, and incubated at 37° C. for 75 minutes. After filtration through a membrane filter (Millex-LG, 0.2 μm, product of Millipore Corporation), 100 μl of the obtained filtrate was diluted with acetonitrile (100 μl), and analyzed using a high performance liquid chromatograph apparatus.
The solubility of each test compound in water was calculated from the calibration curve.

[4] = system: Human colon cancer strain KM20C; assay: Antitumor test using tumor-subcutaneously-implanted nude mouse system upon oral administration at an equitoxic dose; assay type: in vivo, BALB/cA Jcl-nu mouse; settings: once per day for 14 days; for tumor course after completion of administration (regrowth): 20th to 25th day after grouping (about 1 week after completion of administration)
Experimental: Antitumor Test of CNDAC, P-CNDAC, and Compounds 1 and 11 of the Present Invention using Tumor-Subcutaneously-Implanted Nude Mouse System Upon Oral Administration at an Equitoxic Dose.
as §1, with “On” for “When”, “15th day after the day of implantation,” for “average tumor volume exceeded 100 mm^3,”, “Vt=1/2(Vl)×(Vs)2” for “Vt=½(Vl)×(Vs)^2,”, “5) wherein Vt represents a tumor volume, Vl represents the length along the tumor major axis, and Vs represents the length along the tumor minor axis.” for “1)”
CNDAC, P-CNDAC, and Compounds 1 and 11 were each dissolved or suspended in a 0.5% hydroxypropylmethylcellulose solution prepared with 100 mM citrate buffer (pH 5.0), and, from the day after the day of grouping, orally administered at an equitoxic dose once per day for 14 days.
With respect to the mice in each group, the length of each of the subcutaneously implanted tumors was measured along the major axis and minor axis twice a week. RTV was calculated as a reference of tumor growth using the following equation to evaluate antitumor effects. RTV=Vt1/Vt2, (Equation 6)
wherein RTV represents a relative tumor volume, Vt1 represents the tumor volume on the day of evaluation, and Vt2 represents the tumor volume on the day of grouping.

Row | Compound | IR (%) tumor growth inhibition rate [2] [%] | solubility at 75 min [3] [µg/mL] | melting point | further results
1 | N#C[C@H]1[C@H](O)[C@@H](CO)O[C@H]1n1ccc(N)nc1=O [CNDAC, 2′-cyano-2′-deoxy-1-β-D-arabinofuranosylcytosine, reference compound] | 54 | > 1000 |  | AUC(0-t) [1]: 493 ng·h/mL; water solubility, in words ([3]; in water, 37° C.): extremely high water solubility; tumor disappearance [4]: tumors did not disappear; tumor course after completion of administration (regrowth) [4]: tumor regrowth was observed
2 | CCCCCCCCCOC(=O)Nc1ccn([C@@H]2O[C@H](CO)[C@@H](O)[C@@H]2C#N)c(=O)n1 [Compound 1, 4-N-(n-Nonyloxycarbonyl)-2′-cyano-2′-deoxy-1-β-D-arabinofuranosylcytosine] | 96 | 21.1 (≈ 49.9 µM) | 66 °C | reduction of tumor volume (RTV), FIG. 1 [4]: greater reduction of tumor volume than CNDAC and P-CNDAC; tumor disappearance [4]: tumor disappearance was achieved in one of the five cases; tumor course after completion of administration (regrowth) [4]: the tumor size continued to reduce even after completion of administration
3 | CCCCC(CCCC)OC(=O)Nc1ccn([C@@H]2O[C@H](CO)[C@@H](O)[C@@H]2C#N)c(=O)n1 [Compound 2, 4-N-(Nonan-5-yloxycarbonyl)-2′-cyano-2′-deoxy-1-β-D-arabinofuranosylcytosine] |  |  | 83.6 °C | 
4 | CC/C=C\CCCCCOC(=O)Nc1ccn([C@@H]2O[C@H](CO)[C@@H](O)[C@@H]2C#N)c(=O)n1 [Compound 3, 4-N—[(Z)-6-Nonen-1-yloxycarbonyl]-2′-cyano-2′-deoxy-1-β-D-arabinofuranosylcytosine] |  |  | 72.4 °C | 
5 | CCCCC/C=C\CCOC(=O)Nc1ccn([C@@H]2O[C@H](CO)[C@H](O)[C@@H]2C#N)c(=O)n1 [Compound 4, 4-N—[(Z)-3-Nonen-1-yloxycarbonyl]-2′-cyano-2′-deoxy-1-β-D-arabinofuranosylcytosine] | 93 |  |  | 
6 | CCCCCC/C=C/COC(=O)Nc1ccn([C@@H]2O[C@H](CO)[C@@H](O)[C@@H]2C#N)c(=O)n1 [Compound 5, 4-N—[(E)-2-Nonen-1-yloxycarbonyl]-2′-cyano-2′-deoxy-1-β-D-arabinofuranosylcytosine] |  |  | 71.1 °C | 
7 | C=CCCCCCCCOC(=O)Nc1ccn([C@@H]2O[C@H](CO)[C@@H](O)[C@@H]2C#N)c(=O)n1 [Compound 6, 4-N-(8-Nonen-1-yloxycarbonyl)-2′-cyano-2′-deoxy-1-β-D-arabinofuranosylcytosine] |  |  | 72.7 °C | 
8 | CCCCCC/C=C\COC(=O)Nc1ccn([C@@H]2O[C@H](CO)[C@@H](O)[C@@H]2C#N)c(=O)n1 [Compound 7, 4-N—[(Z)-2-Nonen-1-yloxycarbonyl]-2′-cyano-2′-deoxy-1-β-D-arabinofuranosylcytosine] | 96 | > 50 |  | 
9 | CCCCCCOC(=O)OC[C@H]1O[C@@H](n2ccc(N)nc2=O)[C@@H](C#N)[C@@H]1O [Compound 8, 5′-O-(n-Hexyloxycarbonyl)-2′-cyano-2′-deoxy-1-β-D-arabinofuranosylcytosine] | 76 | > 50 | 154.1 °C | 
10 | CCCCCCCOC(=O)OC[C@H]1O[C@@H](n2ccc(N)nc2=O)[C@@H](C#N)[C@@H]1O [Compound 9, 5′-O-(n-Heptyloxycarbonyl)-2′-cyano-2′-deoxy-1-β-D-arabinofuranosylcytosine] | 78 | > 50 | 152.2 °C | 
11 | CCCCCCCCOC(=O)OC[C@H]1O[C@@H](n2ccc(N)nc2=O)[C@@H](C#N)[C@@H]1O [Compound 10, 5′-O-(n-Octyloxycarbonyl)-2′-cyano-2′-deoxy-1-β-D-arabinofuranosylcytosine] | 89 | > 50 | 143.1 °C | 
12 | CCCCC(CCCC)OC(=O)OC[C@H]1O[C@@H](n2ccc(N)nc2=O)[C@@H](C#N)[C@@H]1O [Compound 11, 5′-O-(Nonan-5-yloxycarbonyl)-2′-cyano-2′-deoxy-1-β-D-arabinofuranosylcytosine] | 93 | 49.5 (≈ 117 µM) | 167.2 °C | reduction of tumor volume (RTV), FIG. 1 [4]: greater reduction of tumor volume than CNDAC and P-CNDAC; tumor course after completion of administration (regrowth) [4]: the tumor size continued to reduce even after completion of administration
13 | CC(C)CC(CC(C)C)OC(=O)OC[C@H]1O[C@@H](n2ccc(N)nc2=O)[C@@H](C#N)[C@@H]1O [Compound 14, 5′-O-(2,6-Dimethylheptan-4-yloxycarbonyl)-2′-cyano-2′-deoxy-1-β-D-arabinofuranosylcytosine] |  |  | 182.7 °C (dec.) | 
14 | CCCCCCCCCCOC(=O)Nc1ccn([C@@H]2O[C@H](CO)[C@@H](O)[C@@H]2C#N)c(=O)n1 [Compound 15, 4-N-(n-Decyloxycarbonyl)-2′-cyano-2′-deoxy-1-β-D-arabinofuranosylcytosine] | 22 |  | 97 °C | 
15 | CCCCCCCCOC(=O)Nc1ccn([C@@H]2O[C@H](CO)[C@@H](O)[C@@H]2C#N)c(=O)n1 [Compound 16, 4-N-(n-Octyloxycarbonyl)-2′-cyano-2′-deoxy-1-β-D-arabinofuranosylcytosine] | 38 |  | 67.5 °C | 
16 | N#C[C@H]1[C@H](O)[C@@H](COC(=O)Oc2ccc(Cl)cc2)O[C@H]1n1ccc(N)nc1=O [Compound 17, 5′-O-(4-Chlorophenyloxycarbonyl)-2′-cyano-2′-deoxy-1-β-D-arabinofuranosylcytosine] | 58 |  | 113 °C | 
17 | CCCCCCCCCCCCCCCC(=O)Nc1ccn([C@@H]2O[C@H](CO)[C@@H](O)[C@@H]2C#N)c(=O)n1 [P-CNDAC, 4-N-palmitoyl-2′-cyano-2′-deoxy-1-β-D-arabinofuranosylcytosine, reference compound] |  |  |  | water solubility, in words ([3]; in water, 37° C.): low water solubility; Water Solubility ([3]; in water, 37° C., 75 minutes, filtrate analysed by HPLC): <0.5 µg/mL; tumor disappearance [4]: tumors did not disappear; tumor course after completion of administration (regrowth) [4]: tumor regrowth was observed
